Results on 11 compounds are retold here after patent publication US6887896B1, “7-[(7-Alkoxy)-chrom-3-en-6-yl]-heptatrienoic acid and 7-[(3-alkoxy)-5,6-dihydronaphthalen-2-yl]-heptatrienoic acid derivatives having serum glucose reducing activity” (Allergan, Inc., priority 2003, dated 2005).

The target of data set [1] is T1, RXRγ (UniProt P28705).
T1 sequence (P28705 1-463): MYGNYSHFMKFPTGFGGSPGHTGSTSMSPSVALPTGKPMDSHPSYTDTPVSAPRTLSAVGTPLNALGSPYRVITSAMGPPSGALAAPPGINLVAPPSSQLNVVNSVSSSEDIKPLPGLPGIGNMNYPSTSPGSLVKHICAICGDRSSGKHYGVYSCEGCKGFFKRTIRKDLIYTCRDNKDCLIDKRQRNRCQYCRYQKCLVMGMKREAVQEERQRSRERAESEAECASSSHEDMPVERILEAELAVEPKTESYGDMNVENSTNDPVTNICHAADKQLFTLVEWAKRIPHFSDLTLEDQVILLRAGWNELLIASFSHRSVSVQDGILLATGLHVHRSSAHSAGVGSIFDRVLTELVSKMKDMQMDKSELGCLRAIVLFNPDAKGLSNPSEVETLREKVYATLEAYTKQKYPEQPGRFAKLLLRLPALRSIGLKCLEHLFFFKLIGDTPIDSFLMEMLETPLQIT
Briefly: holoreceptor transactivation assay, RXRγ. The conditions noted are these: for EC50: holoreceptor transactivation, read-out: RXR Trans. EC50 γ; for RXR Trans. efficacy (number in parentheses) γ: percentage compared to the standard compound. The format is cell-based. The text has this: (§1) Specifically, one such assay is a chimeric receptor transactivation assay which tests for agonist-like activity in the R RAPE and RAR7 receptor subtypes, and which is based on work published by Feigner, P. L. and Holm, M (1989) Focus, 112 is described in detail in U.S. Pat. No. 5,455,265. The specification of U.S. Pat. No. 5,455,265 is hereby expressly incorporated by reference. A holoreceptor transactivation assay and a ligand binding assay which measure the antagonist/agonist like activity of the compounds of the invention, or their ability to bind to the several retinoid receptor subtypes, respectively, are described in published PCT Application No. WO WO93/11755 (particularly on pages 30-33 and 37-41) published on Jun. 24, 1993, the specification of which is also incorporated herein by reference. A detailed experimental procedure for holoreceptor transactivations has been described by Heyman et al. Cell 68, 397-406, (1992); Allegretto et al. J. Biol. Chem. 268, 26625-26633, and Mangelsdorf et al. The Retinoids: Biology, Chemistry and Medicine, pp 319-349, Raven Press Ltd., New York, which are expressly incorporated herein by reference. The results obtained in this assay are expressed in EC50 numbers, as they are also in the chimeric receptor transactivation assay. The results of the ligand binding assay are expressed in Ki numbers. (See Cheng et al. Biochemical Pharmacology Vol. 22 pp 3099-3108, expressly incorporated herein by reference.)
(§2) Efficacy in a transactivation assay is expressed as a percentage of the maximum potency attained by the compound compared to a standard which, in this case, is the compound named (2E,4E,1′S,2′S)-3-methyl-5-[2′-methyl-2′-(5,5,8,8-tetramethyl-5,6,7,8-tetrahydro-naphthalen-2-yl)-cyclopropyl]-penta-2,4-dienoic acid. This standard compound is described in U.S. Pat. No. 6,114,533.
(§3) The specification of this application for patent is organized in several sections in accordance with structural Formulas A through F each of which discloses a group of preferred compounds within the scope of the invention. Tables that disclose the activity of certain exemplary compounds of the invention in the above-described RXR receptor transactivation and binding assays are found in the corresponding sections. […] The transactivation data pertaining to the activation of RXR receptors were obtained in the holoreceptor assay.
(§4) Generally speaking, in the tables disclosing the results of transactivation and binding assays the numbers in parentheses indicate efficacy as a percentage compared to the standard compound, (2E,4E,1′S,2′S)-3-methyl-5-[2′-methyl-2′-(5,5,8,8-tetramethyl-5,6,7,8-tetrahydro-naphthalen-2-yl)cyclopropyl]-penta-2,4-dienoic acid and the other numbers indicate the measured EC50 and K; in nanomolar concentration.

In data set [2] the target is T2, RARγ (Homo sapiens, UniProt P13631).
T2 sequence (P13631 185-419 limits assumed): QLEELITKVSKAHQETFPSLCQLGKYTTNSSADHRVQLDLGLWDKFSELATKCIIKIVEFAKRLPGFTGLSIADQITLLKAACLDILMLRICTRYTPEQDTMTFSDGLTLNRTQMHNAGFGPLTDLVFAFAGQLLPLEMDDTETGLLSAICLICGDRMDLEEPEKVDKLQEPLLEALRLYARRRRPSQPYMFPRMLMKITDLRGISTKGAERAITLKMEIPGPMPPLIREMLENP
Put plainly: chimeric receptor transactivation assay, RARγ. The class given is cell-based. The conditions noted are these: read-out: RAR Trans. EC50 γ.
From the text: as §1, with “(See Cheng et al. Biochemical Pharmacology Vol. 22 pp 3099-3108, expressly incorporated herein by reference.)” left out
Efficacy in a transactivation assay is expressed as a percentage of the maximum potency attained by the compound compared to a standard which, in this case, is the compound named (2E,4E,1′S,2′S)-3-methyl-5-[2′-methyl-2′-(5,5,8,8-tetramethyl-5,6,7,8-tetrahydro-naphthalen-2-yl)-cyclopropyl]-penta-2,4-dienoic acid. […]
as §4

Data set [3] addresses T3, RARβ (Homo sapiens, UniProt P10826).
T3 sequence (P10826 1-455): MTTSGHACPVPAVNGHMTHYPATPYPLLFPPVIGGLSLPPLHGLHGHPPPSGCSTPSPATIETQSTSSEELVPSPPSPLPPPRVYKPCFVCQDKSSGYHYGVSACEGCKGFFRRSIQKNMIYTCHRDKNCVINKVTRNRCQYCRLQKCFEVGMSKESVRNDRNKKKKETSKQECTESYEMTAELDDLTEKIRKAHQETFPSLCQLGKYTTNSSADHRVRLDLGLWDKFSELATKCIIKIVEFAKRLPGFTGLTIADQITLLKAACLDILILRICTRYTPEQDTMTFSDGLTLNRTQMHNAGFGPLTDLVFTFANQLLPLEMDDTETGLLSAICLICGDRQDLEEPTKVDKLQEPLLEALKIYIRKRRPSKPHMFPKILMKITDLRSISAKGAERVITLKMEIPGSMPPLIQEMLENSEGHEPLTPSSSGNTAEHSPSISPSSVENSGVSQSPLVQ
Put plainly: ligand binding assay, RARβ. Conditions: for Ki: read-out: RAR Bind. Ki β; for Kd: Table 9 (Formula F), read-out: RAR β Kd. In short, it runs like this:
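Binding of compounds to several retinoid receptor subtypes was measured. Results are given as Ki values in nanomolar concentration, derived per Cheng et al.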

Data set [4] addresses T1, RXRγ. Briefly: ligand binding assay, RXRγ. Conditions: for Kd: Table 9 (Formula F), read-out: RXR γ Kd.
From the text: as §1, §4

The target in data set [5] is T4, RARα (Homo sapiens, UniProt P10276).
T4 sequence (P10276 183-417 limits assumed): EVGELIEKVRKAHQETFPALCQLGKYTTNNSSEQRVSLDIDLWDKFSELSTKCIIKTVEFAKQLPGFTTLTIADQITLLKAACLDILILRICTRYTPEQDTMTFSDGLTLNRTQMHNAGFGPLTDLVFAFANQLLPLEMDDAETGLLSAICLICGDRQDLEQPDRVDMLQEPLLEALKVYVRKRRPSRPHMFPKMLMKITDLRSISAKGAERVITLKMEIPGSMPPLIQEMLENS
Briefly: chimeric receptor transactivation assay, RARα. The format is cell-based. Conditions: for EC50: chimeric receptor transactivation, read-out: RAR Trans. EC50 α; for Emax: percentage compared to the standard compound, read-out: RAR Trans. efficacy (number in parentheses) α.
From the text: as §1, §2, §3, §4

The test system of data set [6] is ob/ob mice. Briefly: serum glucose, triglycerides and T4 in diabetic mice, oral gavage in corn oil daily for seven days. The format is in vivo. The conditions noted are these: 80 mg/kg, corn oil vehicle (second Table 9).

One may read the EC50 as the concentration needed to bring the measured effect to its halfway point. The term Ki denotes the equilibrium dissociation constant of an inhibitor or competing ligand from its target. As for `CCOc1cc2c(cc1\C(C)=C(F)/C=C/C(C)=C/C(=O)O)C=CCC2(C)C` [Compound A-76, (2E,4E,6E)-7-(3-Ethoxy-5,5-dimethyl-5,6-dihydro-naphthalen-2-yl)-6-fluoro-3-methyl-octa-2,4.6-trienoic acid], in data set [1], the EC50 came out at 51 nM and the “RXR Trans. efficacy (number in parentheses) γ” value (from here on “RXR Trans. efficacy”) is reported as 109%. The EC50 in data set [2] is over 10000 nM. Besides, the inhibition constant (Ki) in data set [3] amounted to 2600 nM.
Take `CCOc1cc2c(cc1\C(C)=C(F)/C=C/C(C)=C/C(=O)O)C(C(C)C)=CCC2(C)C` [Compound A-79, (2E,4E,6E)-6-Fluoro-3-(4,4-dimethylethoxy-1-isopropyl-3,4-dihydronaphthalen-7-yl)-3-methyl-2.4,6-octa-trienoic acid]: in data set [1], the EC50 worked out at 2 nM and the “RXR Trans. efficacy” value is 59%. For the same compound, in data set [4] (read-out: RXR Bind Ki γ), the inhibition constant Ki worked out at 88 nM.
As a reminder, the Kd is a measure of binding affinity in units of concentration. `CCOc1c(\C(=C(F)/C=C/C(C)=C/C(=O)O)C(C)C)cc2c(c1Br)C(C)(C)CC=C2C(C)C` [Compound A-171, (2E,4E,6E)-7-(4-Bromo-3-ethoxy-8-isopropyl-5,5-dimethyl-5,6-dihydro-naphthalen-2-yl)-6-fluoro-3.8-dimethyl-nona-2.4,6-trienoic acid]: the EC50 in data set [5] was determined as 3 nM; in data set [1], 2 nM. Also, the Emax in data set [5] stood at 13%. Besides, the “RXR Trans. efficacy” value in data set [1] was determined as 16%. Further, the Kd in data set [4] turned out to be 112 nM; in data set [3], 37 nM.
Take `CCOc1cc2c(cc1\C(CC)=C(F)/C=C/C(C)=C/C(=O)O)C=CCC2(C)C` [Compound A-77]: the EC50 is 41 nM in data set [1] and 2 nM in data set [2]. For the same compound, the “RXR Trans. efficacy” value in data set [1] is “(73) %”. Further, the Ki in data set [3] turned out to be 371 nM.
With `CCOc1cc2c(cc1\C(CC)=C(F)/C=C/C(C)=C/C(=O)O)C(CC)=CCC2(C)C` [Compound A-78, (2E,4E,6E)-7-(3-Ethoxy-8-ethyl-5,5-dimethyl-5,6-dihydro-naphthalen-2-yl)-6-fluoro-3-methyl-nona-2,4,6-trienoic acid], in data set [5], the EC50 was 29 nM and the Emax turned out to be 10%. In addition, in data set [1], the EC50 worked out at 4 nM and the “RXR Trans. efficacy” value was found to be 11%. For the same compound, the inhibition constant Ki in data set [3] is 477 nM.
For `COc1cc2c(cc1\C(C)=C/C=C/C(C)=C/C(=O)O)C(C(C)C)=CC(C)(C)O2` [Compound 43, 7-(4-Isopropyl-7-methoxy-2,2-dimethyl-2H-chromen-6-yl)-3-methyl-octa-2E,4E,6Z-trienoic acid], in that order: 13 nM, 5%, 3 nM, 95% and 378 nM.
`CCOc1c(\C(C)=C(F)/C=C/C(C)=C/C(=O)O)cc2c(c1Br)C(C)(C)CC=C2C(C)(C)C` [Compound A-174, (2E,4E,6E)-7-(4-Bromo-8-tert-butyl-3-ethoxy-5,5-dimethyl-5,6-dihydro-naphthalen-2-yl)-6-fluoro-3-methyl-octa-2,4,6-trienoic acid]: in data set [1], the EC50 is 2 nM and the “RXR Trans. efficacy” value is 12%. For the same compound, in data set [4], the dissociation constant Kd stood at 34 nM. Besides, in data set [3], the Kd was found to be 517 nM.
Turning to `CCOc1c(\C(CC)=C(F)/C=C/C(C)=C/C(=O)O)cc2c(c1Cl)C(C)(C)CC=C2C(C)C` [Compound A-178, (2E,4E,6E)-7-(4-Chloro-3-ethoxy-8-isopropyl-5,5-dimethyl-5,6-dihydronaphthalen-2-yl)-6-fluoro-3-methyl-nona-2,4,6-trienoic acid], the EC50 in data set [5] was 1 nM; in data set [1], 0.3 nM; in data set [2], over 10000 nM. Moreover, in data set [5], the Emax turned out to be 8%. Besides, in data set [1], the “RXR Trans. efficacy” value was found to be 46%. Besides, the Kd in data set [4] stood at 61 nM; in data set [3], 79 nM.
For the compound `CCOc1c(\C(CC)=C(F)/C=C/C(C)=C/C(=O)O)cc2c(c1Br)C(C)(C)CC=C2C(C)CC` (centres unmarked) [Compound A-176, (2E,4E,6E)-7-(4-Bromo-8-sec-butyl-3-ethoxy-5,5-methyl-5,6-dihydro-naphthalen-2-yl)-6-fluoro-3-methyl-nona-2,4,6-trienoic acid], in data set [1], the EC50 came to 3 nM and the “RXR Trans. efficacy” value is on record as 53%. Further, the Kd in data set [4] is 122 nM. In addition, the Kd in data set [3] was determined as 112 nM.
Turning to `CCOc1c(\C(CC)=C(F)/C=C/C(C)=C/C(=O)O)cc2c(c1Br)C(C)(C)CC=C2C(C)C` [Compound A-170, (2E,4E,6E)-7-(4-Bromo-3-ethoxy-8-isopropyl-5,5-dimethyl-5,6-dihydro-naphthalen-2-yl)-6-fluoro-3-methyl-nona-2,4,6-trienoic acid], in data set [6], the “Glucose Day 3, 3 h” value came to 294 mg/dL; the “Glucose Day 6, 3 h” value was determined as 255 mg/dL; the “T4 Day 7” value stood at 2.7 µg/dL; the “Triglycerides Day 3, 3 h” value worked out at 195 mg/dL. In data set [6] (day 0 (pre-treatment)), the “Glucose Day 0” value was 423 mg/dL and the “Triglycerides Day 0” value is 168 mg/dL. Further, in data set [1], the EC50 was 0.4 nM and the “RXR Trans. efficacy” value amounted to 53%. In addition, in data set [4], the Kd was found to be 29 nM. The Kd in data set [3] came to 56 nM.
Take `CC(/C=C/C(F)=C(/C)c1cc2c(c(Br)c1OC(C)C)C(C)(C)CC=C2C(C)C)=C\C(=O)O` [Compound A-172, (2E,4E,6E)-7-(4-Bromo-3-isopropoxy-8-isopropyl-5,5-dimethyl-5,6-dihydro-naphthalen-2-yl)-6-fluoro-3-methyl-octa-2,4,6-trienoic acid]: the EC50 in data set [1] came to 18 nM. Also, the “RXR Trans. efficacy” value in data set [1] stood at 12%. Also, the Kd is 221 nM in data set [4] and 212 nM in data set [3].
